Source: patent US5330743A, “Aminosaccharide contrast agents for magnetic resonance images” (Magnetic Research, Inc., priority 1992, dated 1994)
Like-named read-outs stand apart in the source and are kept apart here.

Assays:
[1] = MR contrast enhancement of kidney in rabbits (T1W spin echo, 1.5 Tesla); type: in vivo, New Zealand White rabbits; details: 0.1 mM/kg intravenously; for time at which contrast enhancement of kidney was well demonstrated: after contrast injection
From the text: (§1) TR=750 msec. TE=37 msec. NEX=4. Flow compensation was used.

[2] = MR contrast enhancement of muscle in rabbits (T1W spin echo, 1.5 Tesla); type: in vivo, New Zealand White rabbits; details: 0.1 mM/kg intravenously
From the text: as §1

[3] = for time at which contrast enhancement of liver was well demonstrated: after contrast injection
Protocol: New Zealand White rabbits were used for all magnetic resonance imaging (MRI) experiments. A General Electric 1.5 Tesla system was used with the knee coil. T1W spin echo images were obtained every 10 minutes following contrast injection. Data points were taken as the time at the end of the scan. Each data point was measured in triplicate with sample signal intensities taken from the liver, kidney, and muscle. TR=750 msec. TE=37 msec. NEX=4. Flow compensation was used. Sedation was performed by using an initial injection of intramuscular ketamine at 110 mg/kg and pentobarbital intravenously at 2.2 cc/kg. Sedation was maintained with intermittent pentobarbital injections as needed at 1 cc/kg.
Two rabbits were given gadolinium DTPA bis-glucosamide at 0.1 mM/kg intravenously. MR images were taken before and after the injection of the contrast agent.
MR images were taken before and after the injection of contrast agent.
Gadolinium DTPA bis-pyriodoxamide was given intravenously at 0.1 mM/kg. MR images were taken before and after the injection of contrast agent.
Comparison is made with two animals which were given Gd DTPA (Schering A. G., Berlin, Germany) 0.1 mM/kg intravenously.

[4] = 11 min. P.I., 0.1 mM/kg intravenously
[5] = 21 min. P.I., 0.1 mM/kg intravenously
[6] = 31 min. P.I., 0.1 mM/kg intravenously
[7] = 44 min. P.I., 0.1 mM/kg intravenously
[8] = 54 min. P.I., 0.1 mM/kg intravenously
[9] = 64 min. P.I., 0.1 mM/kg intravenously
[10] = 76 min. P.I., 0.1 mM/kg intravenously
[11] = 85 min. P.I., 0.1 mM/kg intravenously
[12] = Pre-Contrast, 0.1 mM/kg intravenously

SMILES	contrast enhancement, kidney composite (av of 3) ([1]; 11 min. P.I.)	contrast enhancement, kidney composite (av of 3) ([1]; 21 min. P.I.)	contrast enhancement, kidney composite (av of 3) ([1]; 31 min. P.I.)	contrast enhancement, kidney composite (av of 3) ([1]; 44 min. P.I.)	contrast enhancement, kidney composite (av of 3) ([1]; 54 min. P.I.)	contrast enhancement, kidney composite (av of 3) ([1]; 64 min. P.I.)	contrast enhancement, kidney composite (av of 3) ([1]; 76 min. P.I.)	contrast enhancement, kidney composite (av of 3) ([1]; Pre-Contrast)	contrast enhancement, muscle composite (av of 3) ([2]; 11 min. P.I.)	contrast enhancement, muscle composite (av of 3) ([2]; 21 min. P.I.)	contrast enhancement, muscle composite (av of 3) ([2]; 31 min. P.I.)	contrast enhancement, muscle composite (av of 3) ([2]; 44 min. P.I.)	contrast enhancement, muscle composite (av of 3) ([2]; 54 min. P.I.)	contrast enhancement, muscle composite (av of 3) ([2]; 64 min. P.I.)	contrast enhancement, muscle composite (av of 3) ([2]; 76 min. P.I.)	contrast enhancement, muscle composite (av of 3) ([2]; Pre-Contrast)	contrast enhancement, liver composite (av of 3) [3, 4]	contrast enhancement, liver composite (av of 3) [3, 5]	contrast enhancement, liver composite (av of 3) [3, 6]	contrast enhancement, liver composite (av of 3) [3, 12]	other results
O=C([O-])CN(CCN(CC(=O)[O-])CC(=O)[O-])CCN(CC(=O)[O-])CC(=O)[O-].[Gd+3] [Gd DTPA, gadolinium diethylene triamine pentaacetic acid complex, reference compound]	52.456%	40.275%	28.971%	29.243%	28.405%	27.052%	23.751%	0.000%	12.981%	6.801%	2.020%	-1.543%	-0.464%	-0.873%	-2.407%	0.000%	4.822%	0.852%	6.132%	0.000%	contrast enhancement, kidney composite (av of 3) ([1]; 85 min. P.I.): 14.643%; contrast enhancement, muscle composite (av of 3) ([2]; 85 min. P.I.): -0.899%; contrast enhancement, liver composite (av of 3) [3, 7]: -2.041%; contrast enhancement, liver composite (av of 3) [3, 8]: -2.714%; contrast enhancement, liver composite (av of 3) [3, 9]: -1.063%; contrast enhancement, liver composite (av of 3) [3, 10]: -0.232%; contrast enhancement, liver composite (av of 3) [3, 11]: -0.422%
Cc1ncc(CO)c(CNC(=O)CN(CCN(CCN(CC(=O)[O-])CC(=O)NCc2c(CO)cnc(C)c2O)CC(=O)[O-])CC(=O)[O-])c1O.[Gd+3] [Gd DTPA Bis-Pyridoxamide, Gadolinium DTPA bis-pyriodoxamide]	72.341%	50.381%	53.753%	–	–	–	–	0.000%	7.089%	6.846%	-12.884%	–	–	–	–	0.000%	-4.567%	-4.805%	-3.018%	0.000%	enhancement of the kidney compared to Gd DTPA [1]: improved renal enhancement; time of maximum contrast enhancement, kidney [1]: 11 min; time at which contrast enhancement of kidney was well demonstrated [1]: 11 min; liver enhancement (in words) ([3]; 0.1 mM/kg intravenously): negative liver enhancement
O=C([O-])CN(CCN(CC(=O)[O-])CC(=O)N[C@H]1C(O)O[C@H](CO)[C@H](O)[C@@H]1O)CCN(CC(=O)[O-])CC(=O)N[C@H]1C(O)O[C@H](CO)[C@H](O)[C@@H]1O.[Gd+3] (stereo partly shown) [Gd DTPA Galactosamide, gadolinium DTPA galactosamide]	52.932%	47.999%	46.968%	41.697%	41.936%	42.336%	37.335%	0.000%	18.349%	24.593%	12.578%	7.783%	14.531%	12.252%	-10.121%	0.000%	21.943%	13.116%	15.632%	0.000%	course of contrast enhancement after maximum, kidney [1]: decreased very slowly; time of maximum contrast enhancement, kidney [1]: 22 min; time at which contrast enhancement of kidney was well demonstrated [1]: 11 min; contrast enhancement, kidney composite (av of 3) ([1]; 85 min. P.I.): 26.562%; enhancement of the muscle compared to Gd DTPA [2]: improved enhancement; contrast enhancement, muscle composite (av of 3) ([2]; 85 min. P.I.): -3.078%; course of contrast enhancement after maximum, liver ([3]; 0.1 mM/kg intravenously): decreased rapidly; enhancement of the liver compared to Gd DTPA ([3]; 0.1 mM/kg intravenously): improved enhancement; time of maximum contrast enhancement, liver ([3]; 0.1 mM/kg intravenously): 11 min; time at which contrast enhancement of liver was well demonstrated ([3]; 0.1 mM/kg intravenously): 11 min; contrast enhancement, liver composite (av of 3) [3, 7]: 11.724%; contrast enhancement, liver composite (av of 3) [3, 8]: 13.202%; contrast enhancement, liver composite (av of 3) [3, 9]: 8.360%; contrast enhancement, liver composite (av of 3) [3, 10]: 11.639%; contrast enhancement, liver composite (av of 3) [3, 11]: 15.451%; time at which contrast agent appears to have been cleared from the liver ([3]; rabbit, in vivo, iv): 76 min
O=C([O-])CN(CCN(CC(=O)[O-])CC(=O)N[C@H]1C(O)O[C@H](CO)[C@@H](O)[C@@H]1O)CCN(CC(=O)[O-])CC(=O)N[C@H]1C(O)O[C@H](CO)[C@@H](O)[C@@H]1O.[Gd+3] (stereo partly shown) [Gd DTPA Bis-Glucosamide, gadolinium DTPA bis-glucosamide]	77.532%	68.552%	46.320%	42.172%	31.288%	30.596%	22.065%	0.000%	3.791%	-3.481%	-2.205%	-6.098%	-7.962%	-11.035%	-5.465%	0.000%	17.157%	14.172%	11.053%	0.000%	course of contrast enhancement after maximum, kidney [1]: decreased gradually; enhancement of the kidney compared to Gd DTPA [1]: improved enhancement; time until which maximum contrast enhancement was maintained, kidney [1]: 22 min; time at which contrast enhancement of kidney was well demonstrated [1]: 11 min; course of contrast enhancement after maximum, liver ([3]; 0.1 mM/kg intravenously): decreased gradually; decrease in contrast, liver versus kidney ([3]; 0.1 mM/kg intravenously): slower in the liver than in the kidney; enhancement of the liver compared to Gd DTPA ([3]; 0.1 mM/kg intravenously): improved enhancement; time until which maximum contrast enhancement was maintained, liver ([3]; 0.1 mM/kg intravenously): 22 min; time at which contrast enhancement of liver was well demonstrated ([3]; 0.1 mM/kg intravenously): 11 min; contrast enhancement, liver composite (av of 3) [3, 7]: 7.390%; contrast enhancement, liver composite (av of 3) [3, 8]: 9.910%; contrast enhancement, liver composite (av of 3) [3, 9]: 3.151%; contrast enhancement, liver composite (av of 3) [3, 10]: 1.750%
